According to US4181731A, “Novel therapeutic application of 4-carbamoyl-5-hydroxyimidazole” (Sumitomo Chemical Company, Limited, priority 1978, dated 1980):

What was measured:
mice (ICR, male) = assay: Subacute toxicities against mice (oral, 21 days); assay type: in vivo; conditions: 100 mg/kg/day orally
Protocol: Subacute toxicities of Compound A against mice (ICR, male, body weight approximately 25 g) were as follows. The said compound was orally administered for 21 days. The dosage level was 100 mg/kg/day.

Masuji nephritis = assay: Antinephritic effects on Masuji nephritis; assay type: in vivo; conditions: for Urinary Protein: control 238.9; for Inhibition Ratio: urinary protein
From the text: The antinephritic activities were estimated according to the methods described in "Arerugii", Vol. 24, p. 472 (1975) (in Japanese).
*Successive oral administration began for 2 days before the injection of […]

adjuvant arthritis = assay: Inhibitory effects on the adjuvant arthritis of rats (antirheumatic activity); assay type: in vivo; conditions: for Foot Volume: control 2.34 ml; for Inhibition Rate: foot volume
Protocol: The antirheumatic activities on adjuvant arthritis were estimated according to the methods described in "Arzneimittel-Forschung (Drug Res.)", Vol. 22, p. 1959 (1972).
*Successive administration was performed immediately after inoculation of […]

[1] = Acute toxicity against mice; conditions: mouse, in vivo, mice (ICR, male, 22-25 g)
From the text: Acute toxicity of Compound A against mice (ICR, male, body weight 22-25 g) was as follows.

## NC(=O)c1nc[nH]c1O [Compound A, 4-carbamoyl-5-hydroxyimidazole]
Mice (ICR, male)
  Autopsy: No adverse effect
  Body weight change: Normal
  Clinical signs: No adverse effect except slight involution of the spleen
  Food consumption: Normal
  Haematology, overall finding: No adverse effect
  Relative organ weight, Heart (average): 0.49%
  Relative organ weight, Kidney (average): 1.50%
  Relative organ weight, Liver (average): 6.24%
  Relative organ weight, Lung (average): 0.81%
  Relative organ weight, Spleen (average): 0.30%
  Relative organ weight, Testis (average): 0.38%
  Relative organ weight, Thymus (average): 0.20%
  Urinalysis, overall finding: No adverse effect
Mice (ICR, male); Haematology
  GOT (average): 54.4 K.U.
  Hematocrit value (average): 35%
  Hemoglobin (average): 15.1 g/dL
  Red blood cells (average): 6.0 × 10^6 /mm^3
  White blood cells (average): 6.5 × 10^4 /mm^3
Mice (ICR, male); Urinalysis
  Glucose (urinalysis): Negative
  Occult blood (urinalysis): Negative
  Protein (urinalysis): 30 to 100 mg/dL
  pH (urinalysis): 6.0-6.5
Masuji nephritis; 5 mg/kg/day × 16, p.o.
  Urinary Protein: 147.6 mg/24 hrs.
  Inhibition Ratio: 38.2%
Masuji nephritis; 10 mg/kg/day × 16, p.o.
  Urinary Protein: 68.4 mg/24 hrs.
  Inhibition Ratio: 71.4%
Masuji nephritis; 25 mg/kg/day × 16, p.o.
  Urinary Protein: 28.4 mg/24 hrs.
  Inhibition Ratio: 88.1%
Adjuvant arthritis; 5 mg/kg/day × 21, p.o.
  Foot Volume: 1.28 mL
  Inhibition Rate: 45.3%
Adjuvant arthritis; 10 mg/kg/day × 21, p.o.
  Foot Volume: 0.88 mL
  Inhibition Rate: 62.3%
Adjuvant arthritis; 25 mg/kg/day × 21, p.o.
  Foot Volume: 0.44 mL
  Inhibition Rate: 81.2%
[1]; ip
  LD50: > 500 mg/kg
[1]; iv
  LD50: > 130 mg/kg
[1]; po
  LD50: > 2000 mg/kg
